According to patent US6713490B2, “3,4-dihydroquinolin-2(1H)-one compounds as NR2B receptor antagonists” (Pfizer, Inc., priority 2002, dated 2004):
Where a name gives a salt, the structure may show the parent alone.

Key:
NR2B = NR2B (Homo sapiens, UniProt Q05586+Q13224); experiment: Functional activity (method not described); type: cell-based
HERG potassium channel = target: T1, HERG potassium channel (Homo sapiens, UniProt Q12809); experiment: Dofetilide binding assay ([3H]-dofetilide competition, membranes of HEK-293 cells expressing the HERG product)
T1 construct: expressed in transfected cells; host or cells: HEK-293

NR2B subunit = target: T2, NR2B subunit (Rattus norvegicus, UniProt P35439+Q00960); experiment: NR2B binding assay ([3H]-CP-98,113 competition, rat forebrain P2 membrane); conditions: 5 nM [3H]-CP-98,113, rat forebrain P2 membrane
T2 construct: Membranes were prepared by homogenization of forebrain of male CD rats; from tissue; host or cells: rat forebrain P2 membrane
Method: The activity of the 3,4-dihydroquinolin-2(1H)-one compounds of the present invention, as NR2B antagonists, is determined by their ability to inhibit the binding of NR2B subunit at its receptor sites employing radioactive ligands.
The NR2B antagonist activity of the 3,4-dihydroquinolin-2(1H)-one compounds is evaluated by using the standard assay procedure described in, for example, J. Pharmacol., 331, pp117-126, 1997. […] More specifically, the assay is carried out as follows.
Membranes were prepared by homogenization of forebrain of male CD rats weighing between 170˜190 g by using glass-Teflon homogenizer in 0.32 M sucrose at 4° C. […]
For the saturation assay, receptor saturation was determined by incubating [^3H]-CP-98,113 and 50 μg protein of P2 membrane for 60 minutes at room temperature in a final 100 μl of incubation buffer (50 mM Tris HCl, pH7.4). Total and non-specific bindings (in the presence of 10 μM of unlabeled CP-98,113) were determined in a range of [^3H]-CP-98113 concentrations (0.625 nM to 60 nM). […]
For the competition assay, test compounds were incubated in duplicate with 5 nM [^3H]-CP-98,113 and 50 μg protein of P2 membrane for 60 minutes at room temperature in a final 100 μl of 50 mM Tris HCl buffer (pH7.4). Nonspecific binding was determined by 10 μM of unlabeled CP-98,113 (25 μl). […]

T2 sequence (Q00960 27-1482, other chains not shown): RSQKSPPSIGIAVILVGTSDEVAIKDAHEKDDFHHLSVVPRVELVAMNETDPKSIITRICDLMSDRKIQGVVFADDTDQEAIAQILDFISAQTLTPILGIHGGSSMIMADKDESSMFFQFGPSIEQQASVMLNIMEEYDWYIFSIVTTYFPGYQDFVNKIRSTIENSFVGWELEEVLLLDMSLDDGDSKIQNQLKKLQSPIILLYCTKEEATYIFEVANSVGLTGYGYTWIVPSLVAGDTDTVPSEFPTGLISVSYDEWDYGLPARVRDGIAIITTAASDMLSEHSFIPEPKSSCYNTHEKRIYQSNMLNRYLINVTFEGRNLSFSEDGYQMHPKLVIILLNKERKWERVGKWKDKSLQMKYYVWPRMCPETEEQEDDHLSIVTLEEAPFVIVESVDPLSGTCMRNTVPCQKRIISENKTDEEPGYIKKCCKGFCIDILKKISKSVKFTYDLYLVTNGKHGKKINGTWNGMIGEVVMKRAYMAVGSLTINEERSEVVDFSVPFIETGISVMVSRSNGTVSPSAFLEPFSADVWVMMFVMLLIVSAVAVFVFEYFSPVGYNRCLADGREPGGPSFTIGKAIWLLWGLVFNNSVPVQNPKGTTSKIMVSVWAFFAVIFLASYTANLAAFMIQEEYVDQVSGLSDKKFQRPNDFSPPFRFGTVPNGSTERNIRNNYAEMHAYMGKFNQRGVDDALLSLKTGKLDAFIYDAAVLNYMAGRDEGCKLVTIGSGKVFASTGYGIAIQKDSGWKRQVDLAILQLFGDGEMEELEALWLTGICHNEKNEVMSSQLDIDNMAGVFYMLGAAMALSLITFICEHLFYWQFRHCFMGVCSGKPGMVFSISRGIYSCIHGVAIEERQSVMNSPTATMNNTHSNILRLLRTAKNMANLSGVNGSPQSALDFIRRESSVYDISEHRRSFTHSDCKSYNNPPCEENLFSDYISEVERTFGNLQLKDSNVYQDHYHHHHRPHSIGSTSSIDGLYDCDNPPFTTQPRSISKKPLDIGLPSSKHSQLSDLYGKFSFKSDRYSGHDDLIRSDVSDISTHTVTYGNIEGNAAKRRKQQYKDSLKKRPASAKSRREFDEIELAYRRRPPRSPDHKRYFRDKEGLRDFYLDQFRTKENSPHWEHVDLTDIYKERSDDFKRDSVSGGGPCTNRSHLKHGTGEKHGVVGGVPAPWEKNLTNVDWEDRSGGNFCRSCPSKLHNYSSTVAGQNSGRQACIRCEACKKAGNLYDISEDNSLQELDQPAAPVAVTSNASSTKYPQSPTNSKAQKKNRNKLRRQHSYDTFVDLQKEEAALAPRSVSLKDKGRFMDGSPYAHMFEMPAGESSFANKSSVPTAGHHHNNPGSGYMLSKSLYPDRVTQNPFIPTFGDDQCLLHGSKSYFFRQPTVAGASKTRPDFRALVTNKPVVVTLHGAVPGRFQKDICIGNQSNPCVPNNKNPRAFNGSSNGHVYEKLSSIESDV
Sequence of NR2B (Q13224 27-1484, species assumed, other chains not shown): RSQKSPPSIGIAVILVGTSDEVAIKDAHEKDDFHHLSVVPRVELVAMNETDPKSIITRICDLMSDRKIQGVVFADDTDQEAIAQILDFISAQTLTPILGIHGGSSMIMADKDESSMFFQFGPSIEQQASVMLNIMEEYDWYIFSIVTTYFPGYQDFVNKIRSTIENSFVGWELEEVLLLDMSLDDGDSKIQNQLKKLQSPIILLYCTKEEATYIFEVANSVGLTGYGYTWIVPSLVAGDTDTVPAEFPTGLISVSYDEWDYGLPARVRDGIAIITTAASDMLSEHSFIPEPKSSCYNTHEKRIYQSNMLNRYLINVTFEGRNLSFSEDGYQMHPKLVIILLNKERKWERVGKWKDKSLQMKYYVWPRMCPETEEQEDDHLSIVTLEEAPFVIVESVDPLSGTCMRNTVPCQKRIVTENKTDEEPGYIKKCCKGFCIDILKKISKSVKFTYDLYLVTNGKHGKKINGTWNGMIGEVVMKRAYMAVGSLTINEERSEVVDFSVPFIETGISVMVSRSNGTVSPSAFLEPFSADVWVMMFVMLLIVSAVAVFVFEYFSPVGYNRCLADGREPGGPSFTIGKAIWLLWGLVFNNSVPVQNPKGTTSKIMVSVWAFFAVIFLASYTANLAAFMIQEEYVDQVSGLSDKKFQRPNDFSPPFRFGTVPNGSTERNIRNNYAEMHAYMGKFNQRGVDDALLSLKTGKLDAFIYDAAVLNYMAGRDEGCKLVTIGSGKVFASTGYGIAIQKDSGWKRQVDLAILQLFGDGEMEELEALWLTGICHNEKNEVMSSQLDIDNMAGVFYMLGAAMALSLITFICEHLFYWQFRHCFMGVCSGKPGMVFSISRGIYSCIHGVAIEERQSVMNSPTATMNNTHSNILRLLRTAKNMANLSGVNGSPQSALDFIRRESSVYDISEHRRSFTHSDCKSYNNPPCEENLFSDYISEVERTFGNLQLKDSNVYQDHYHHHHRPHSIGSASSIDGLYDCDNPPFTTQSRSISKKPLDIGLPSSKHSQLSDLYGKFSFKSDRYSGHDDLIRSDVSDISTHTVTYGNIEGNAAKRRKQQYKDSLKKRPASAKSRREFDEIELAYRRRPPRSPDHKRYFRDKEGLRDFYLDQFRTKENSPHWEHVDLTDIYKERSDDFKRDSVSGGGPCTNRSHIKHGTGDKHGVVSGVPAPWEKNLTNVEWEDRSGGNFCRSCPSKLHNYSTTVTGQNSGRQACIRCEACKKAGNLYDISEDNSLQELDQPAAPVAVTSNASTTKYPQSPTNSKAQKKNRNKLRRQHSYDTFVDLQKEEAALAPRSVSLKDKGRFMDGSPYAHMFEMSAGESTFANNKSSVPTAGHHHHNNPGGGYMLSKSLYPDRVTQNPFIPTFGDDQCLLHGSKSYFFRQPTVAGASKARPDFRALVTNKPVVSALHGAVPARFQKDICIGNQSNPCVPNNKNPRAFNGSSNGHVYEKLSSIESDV
T1 sequence (Q12809 whole entry): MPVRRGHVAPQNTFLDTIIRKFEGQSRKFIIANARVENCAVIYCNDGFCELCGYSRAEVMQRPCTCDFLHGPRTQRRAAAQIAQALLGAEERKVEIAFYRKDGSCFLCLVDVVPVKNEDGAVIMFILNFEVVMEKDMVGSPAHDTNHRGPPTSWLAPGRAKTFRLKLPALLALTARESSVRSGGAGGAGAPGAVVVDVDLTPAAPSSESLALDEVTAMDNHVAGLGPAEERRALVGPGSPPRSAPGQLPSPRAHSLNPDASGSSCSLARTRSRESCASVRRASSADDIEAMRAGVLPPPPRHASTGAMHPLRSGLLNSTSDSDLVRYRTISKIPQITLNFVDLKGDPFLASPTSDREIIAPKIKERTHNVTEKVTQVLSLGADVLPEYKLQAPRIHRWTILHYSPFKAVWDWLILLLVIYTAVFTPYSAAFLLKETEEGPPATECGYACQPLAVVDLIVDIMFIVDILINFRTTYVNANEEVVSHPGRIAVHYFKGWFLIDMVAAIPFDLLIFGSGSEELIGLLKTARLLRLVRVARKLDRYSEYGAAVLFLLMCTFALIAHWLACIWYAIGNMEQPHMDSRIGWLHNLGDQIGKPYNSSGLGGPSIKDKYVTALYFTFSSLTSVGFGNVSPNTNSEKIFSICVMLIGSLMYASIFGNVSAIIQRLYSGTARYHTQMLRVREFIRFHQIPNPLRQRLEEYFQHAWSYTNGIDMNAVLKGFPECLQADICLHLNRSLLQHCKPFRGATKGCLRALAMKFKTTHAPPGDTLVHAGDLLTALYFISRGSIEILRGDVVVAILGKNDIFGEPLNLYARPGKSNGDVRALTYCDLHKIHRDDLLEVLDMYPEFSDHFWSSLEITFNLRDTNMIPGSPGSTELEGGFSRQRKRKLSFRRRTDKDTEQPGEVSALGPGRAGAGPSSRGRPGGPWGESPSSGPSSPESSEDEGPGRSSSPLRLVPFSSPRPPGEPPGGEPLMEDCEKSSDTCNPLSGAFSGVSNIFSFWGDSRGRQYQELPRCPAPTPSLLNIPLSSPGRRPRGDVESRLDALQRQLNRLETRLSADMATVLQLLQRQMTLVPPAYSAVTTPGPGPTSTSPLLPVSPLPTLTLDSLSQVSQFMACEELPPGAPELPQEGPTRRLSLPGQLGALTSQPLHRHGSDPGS

Row | melting point | Compound | IC50 (NR2B) [nM] | Ki (NR2B subunit) [nM] | further results
1 |  | C[C@H]([C@H](O)c1ccc2c(c1)CCC(=O)N2)N1CCC(O)(c2ccccc2)CC1 | 22.4 |  | 
2 |  | O=C1CCc2cc([C@@H](O)CN3CCC(O)(c4cccc(F)c4)CC3)ccc2N1 | 11.9 | 3.5 | Ki (HERG potassium channel; 5 nM [3H]-dofetilide, HERG homogenate of HEK-293 cells): 8300 nM; TI (Defetilide/NR2B) (HERG potassium channel; TI = Dofetilide Binding Ki [μM]/NR2B Binding Ki [nM] x 1000): 2400
3 | 246.9 °C | COc1cccc(C2(O)CCN(CC(O)c3ccc4c(c3)CCC(=O)N4)CC2)c1 (stereo not drawn) (as salt: hydrochloride) [Example 2, 6-{1-Hydroxy-2-[4-hydroxy-4-(3-methoxyphenyl)-1-piperidinyl]ethyl}-3,4-dihydroquinolin-2(1H)-one Hydrochloride] |  |  | 
4 | 98 to 100 °C (dec.) | Cc1cccc(C2(O)CCN(CC(O)c3ccc4c(c3)CCC(=O)N4)CC2)c1 (stereo not drawn) (as salt: mesylate) [Example 4, 6-[1-Hydroxy-2-[4-hydroxy-4-(3-methylphenyl)piperidin-1-yl]ethyl]-3,4-dihydroquinolin-2(1H)-one mesylate] |  |  | 
5 |  | C[C@H]([C@H](O)c1ccc2c(c1)CCC(=O)N2)N1CCC(O)(c2ccc(F)cc2)CC1 [reference compound] |  | 7 | 

Row | Compound | melting point | IC50 (NR2B) [nM] | Ki (NR2B subunit) [nM] | further results
6 | CS(=O)(=O)O.O=C1CCc2cc([C@@H](O)CN3CCC(O)(c4cccc(F)c4)CC3)ccc2N1 | 180 to 182 °C |  |  | 
